Assay results taken from ChEMBL document CHEMBL2203062 (Bioorg Med Chem Lett, 2012).

What was measured:
[1] = molecular target: Histone deacetylase 1 (Homo sapiens, UniProt Q13547); experiment: Inhibition of HDAC1 using Fluor-de-Lys as substrate compound pretreated for 30 mins before substrate addition by fluorescence assay
[2] = Selectivity ratio of IC50 for HDAC3 to IC50 for IC50 for HDAC6
[3] = molecular target: T1, Protein deacetylase HDAC6 (Homo sapiens, UniProt Q9UBN7); experiment: Inhibition of HDAC6 using Fluor-de-Lys as substrate compound pretreated for 30 mins before substrate addition by fluorescence assay
T1 sequence (Q9UBN7 whole entry): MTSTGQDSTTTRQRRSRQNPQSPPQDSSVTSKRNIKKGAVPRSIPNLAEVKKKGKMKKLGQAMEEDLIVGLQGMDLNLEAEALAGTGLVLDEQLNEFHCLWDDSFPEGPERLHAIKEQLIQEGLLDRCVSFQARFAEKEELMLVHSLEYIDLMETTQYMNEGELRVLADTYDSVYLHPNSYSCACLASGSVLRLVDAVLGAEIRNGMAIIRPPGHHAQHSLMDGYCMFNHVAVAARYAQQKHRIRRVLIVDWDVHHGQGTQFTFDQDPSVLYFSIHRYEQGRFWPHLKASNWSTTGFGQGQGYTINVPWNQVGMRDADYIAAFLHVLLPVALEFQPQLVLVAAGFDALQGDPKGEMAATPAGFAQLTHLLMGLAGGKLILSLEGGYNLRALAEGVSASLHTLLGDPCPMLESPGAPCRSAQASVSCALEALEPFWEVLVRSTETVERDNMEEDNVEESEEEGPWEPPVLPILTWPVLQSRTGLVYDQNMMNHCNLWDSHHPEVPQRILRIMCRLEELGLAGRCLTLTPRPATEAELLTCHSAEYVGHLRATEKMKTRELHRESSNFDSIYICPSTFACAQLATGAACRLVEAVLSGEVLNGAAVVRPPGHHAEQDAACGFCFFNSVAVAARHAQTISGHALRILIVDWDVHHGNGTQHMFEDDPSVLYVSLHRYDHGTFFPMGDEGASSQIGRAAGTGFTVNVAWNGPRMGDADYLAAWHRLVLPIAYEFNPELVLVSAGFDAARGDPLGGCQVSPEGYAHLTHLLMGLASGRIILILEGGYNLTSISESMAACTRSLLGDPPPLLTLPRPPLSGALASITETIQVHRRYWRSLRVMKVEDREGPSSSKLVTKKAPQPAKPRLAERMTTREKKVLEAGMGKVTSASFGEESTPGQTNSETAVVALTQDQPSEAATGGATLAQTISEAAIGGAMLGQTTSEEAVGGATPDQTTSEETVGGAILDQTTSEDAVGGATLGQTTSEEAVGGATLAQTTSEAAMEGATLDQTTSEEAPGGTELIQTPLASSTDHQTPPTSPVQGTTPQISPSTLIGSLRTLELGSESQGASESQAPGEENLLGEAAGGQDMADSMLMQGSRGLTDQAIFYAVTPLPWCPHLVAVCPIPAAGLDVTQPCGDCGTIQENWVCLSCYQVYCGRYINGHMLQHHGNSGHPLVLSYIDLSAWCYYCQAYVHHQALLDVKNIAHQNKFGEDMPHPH

[4] = molecular target: Histone deacetylase; experiment: Inhibition of HDAC in human Hela cell lysate using Fluor-de-Lys as substrate compound pretreated for 30 mins before substrate addition by fluorescence assay; format: cell-based
[5] = molecular target: Histone deacetylase 3 (Homo sapiens, UniProt O15379); experiment: Inhibition of HDAC3 using Fluor-de-Lys as substrate compound pretreated for 30 mins before substrate addition by fluorescence assay
Chain of Histone deacetylase 3 (O15379 whole entry): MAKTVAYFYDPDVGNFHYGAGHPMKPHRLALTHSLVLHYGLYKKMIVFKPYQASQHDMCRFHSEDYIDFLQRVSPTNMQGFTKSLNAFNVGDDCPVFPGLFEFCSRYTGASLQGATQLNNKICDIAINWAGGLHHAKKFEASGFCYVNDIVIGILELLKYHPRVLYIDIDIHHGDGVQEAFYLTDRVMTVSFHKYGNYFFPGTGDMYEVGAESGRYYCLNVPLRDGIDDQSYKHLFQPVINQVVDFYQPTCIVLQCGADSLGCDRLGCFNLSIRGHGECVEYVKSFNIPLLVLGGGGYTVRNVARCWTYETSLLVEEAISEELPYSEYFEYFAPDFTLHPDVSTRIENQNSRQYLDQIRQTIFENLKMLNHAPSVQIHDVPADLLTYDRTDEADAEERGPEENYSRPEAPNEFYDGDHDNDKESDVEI

Chain of Histone deacetylase 1 (Q13547 whole entry): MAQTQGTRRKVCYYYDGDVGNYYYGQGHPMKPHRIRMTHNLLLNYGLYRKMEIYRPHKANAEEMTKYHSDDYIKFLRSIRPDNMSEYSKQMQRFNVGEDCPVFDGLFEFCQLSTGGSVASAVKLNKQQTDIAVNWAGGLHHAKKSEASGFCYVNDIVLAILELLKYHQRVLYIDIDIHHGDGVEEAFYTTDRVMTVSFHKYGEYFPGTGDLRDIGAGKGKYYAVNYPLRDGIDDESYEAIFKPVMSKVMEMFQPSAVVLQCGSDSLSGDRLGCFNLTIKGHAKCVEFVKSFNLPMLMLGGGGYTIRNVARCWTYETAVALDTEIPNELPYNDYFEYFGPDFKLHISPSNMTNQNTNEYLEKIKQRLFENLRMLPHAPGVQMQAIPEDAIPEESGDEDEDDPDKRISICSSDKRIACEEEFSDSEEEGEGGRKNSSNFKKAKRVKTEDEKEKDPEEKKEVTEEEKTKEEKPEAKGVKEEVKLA

Row | Compound | IC50 [1] [nM] | Ratio IC50 [2] | IC50 [3] [nM] | IC50 [4] [nM] | IC50 [5] [nM]
1 | CC(C)(C)C(CCCCC(=O)NO)CC(=O)Nc1ccccc1 (stereo unspecified) | 990 | 2 | 2400 | 1940 | 5400
2 | CCC(CCCCC(=O)Nc1ccccc1)CC(=O)NO (stereo unspecified) | – | 12 | – | – | –
